The target in one data set is T1, AChE (Mus musculus, UniProt P21836).
T1 construct: from tissue; host or cells: mouse serum (C57BL/6JRccHsd)
T1 sequence (P21836 32-614): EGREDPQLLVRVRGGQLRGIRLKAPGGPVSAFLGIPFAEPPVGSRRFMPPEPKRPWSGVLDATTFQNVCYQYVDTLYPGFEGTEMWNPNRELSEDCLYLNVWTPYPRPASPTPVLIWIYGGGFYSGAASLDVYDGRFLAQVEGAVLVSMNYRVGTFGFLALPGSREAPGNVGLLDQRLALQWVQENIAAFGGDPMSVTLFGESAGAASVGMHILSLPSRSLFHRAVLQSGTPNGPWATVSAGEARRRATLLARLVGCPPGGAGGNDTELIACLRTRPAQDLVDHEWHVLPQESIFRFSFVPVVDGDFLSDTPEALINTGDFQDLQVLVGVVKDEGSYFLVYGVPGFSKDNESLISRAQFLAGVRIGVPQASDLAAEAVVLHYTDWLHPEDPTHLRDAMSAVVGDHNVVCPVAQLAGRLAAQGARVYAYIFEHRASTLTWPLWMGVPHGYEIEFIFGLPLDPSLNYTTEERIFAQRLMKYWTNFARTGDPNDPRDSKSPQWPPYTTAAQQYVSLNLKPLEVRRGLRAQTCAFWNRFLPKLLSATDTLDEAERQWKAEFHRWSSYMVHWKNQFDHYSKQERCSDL
The experiment in a line: Cholinesterase inhibition upon repeated dosing, serum AChE. Format: in vivo, C57BL/6JRccHsd mice. The text has this: The 12 mice used in this pilot study were 9–14 months old male wild-type C57BL/6JRccHsd mice bred in the Laboratory of Animal Genomics at the Faculty of Veterinary Medicine, University of Ljubljana, or purchased from Envigo RMS Holding Corp. Mice were conventionally bred in open polycarbonate cages (Tecniplast, Buguggiate, Italy) and provided with wood chip bedding (Lignocel®, Rettenmaier and Sons, Germany). Mice were kept under standard conditions, including a 12:12 dark–light cycle (LED, CCT 3000 k, with no more than 25 lux above the cage), a temperature range of 21–24 °C, and humidity between 50%–60%. They were fed irradiated rodent diet (Teklad global 16% protein rodent diet®, BN 2916, Envigo, Udine, Italy) and had access to drinkable tap water ad libitum. Due to the nature of this pilot study, the mice were housed individually. The experimental design was evaluated by the National Ethics Committee for Animal Experiments and approved by the Veterinary Administration of the Republic of Slovenia (document no. U34401-10/2021/8, with amendments U34401-10/2021/13 and U34401-10/2021/1).
Before the start of study, blood was drawn from the submandibular vein (facial vein) of the animals under isoflurane inhalation anesthesia (Isoflurin®, VetPharma, Spain) using a 5 mm lancet (Goldenrod Animal Sterile, MEDIpoint, Inc., NY, USA), collected in a microtube (Eppendorf, Safe-Lock tube, 0.5 mL, Eppendorf AG, Germany) and allowed to clot. After approximately 1 h, the blood was centrifuged at 6000 × g for 15 min at 4 °C to obtain the sera, which were stored at –80 °C until analysis.
Seven animals received the 1 mg/kg dose of compound 8, and five animals received the 5 mg/kg dose of compound 8. Compound 8 was prepared as a stock solution in 100% MeCN (5 and 10 mg/mL) and kept refrigerated for the duration of the study. The dosages were prepared as follows: based on the animal’s body weight, a calculated volume of compound 8 stock solution was accurately pipetted onto a cubic piece (approx. 50 mg) of sterilized toast (Ölz multigrain toast, Rudolf Ölz Meisterbäcker GmbH & Co KG, Austria), and left to dry at room temperature for 5 min. Subsequently, 25 μL of 50% sucrose in distilled water were added at the same site to mask the bitter taste of compound 8. These dosage units were prepared twice a week during the study and stored in a closed glass petri dish at room temperature until use. […] Compound 8 was administered in this way for 27 days, eliminating the need for repeated handling and injection. The animals were observed daily for general activity level, hair coat quality or other abnormal behavior or clinical signs.
24 h after the last dose was administered, the mice were humanly euthanized under isoflurane inhalation anesthesia (Isoflurin®, VetPharma, Spain) and the blood was withdrawn from the left ventricle using a syringe, collected in a microtube (Eppendorf, Safe-Lock tube, 0.5 mL, Eppendorf AG, Germany) and allowed to clot. After approximately 1 h, the blood was centrifuged at 6000 × g for 15 min at 4 °C to obtain the sera, which were stored at –80 °C until analysis. […] Animal sera (5–10 μL) were diluted in 0.5 mmol/L DTNB in 0.1 mol/L sodium phosphate buffer pH 7.4 (total volume 1000 μL), substrate (5 μL of 100 mmol/L, final concentration 0.5 mmol/L) was added, and the increase in absorbance monitored for 3 min. BChE activity was determined using butyrylthiocholine iodide, while AChE activity was determined on isoOMPA-inhibited sera (buffer-diluted sera were preincubated for 25 min with 1 μL of 100 mmol/L isoOMPA–0.1 mmol/L final concentration) using acetylthiocholine iodide (final concentration 0.5 mmol/L). Measurements were performed in triplicate and pairwise compared before and after treatment for each subject (n = 5 per group).

The nature of data set [1]: pKa from solubility and partition measurements. Format: physicochemical. Conditions: break in the logP vs. pH and log(solubility) vs. pH plot. The procedure:
The supernatants were diluted 1:5 with 50% MeCN or used directly for UPLC analysis (calibration curve was constructed from 0.5–100 mg/L standard solutions of compound 8).
Shake-flask partition coefficient measurement was done according to OECD guideline 107 (27. 7. 1995) and EPA OPPTS 830.7550 guideline (1996). Briefly, PBS pH 7.4 buffer (50 mL) and n-octanol (50 mL) were thoroughly shaken to ensure saturation of both phases and left to separate. Compound 8 stock solution in n-octanol (approx. 1000 mg/L) was accurately pipetted into Eppendorf tubes (500, 1000, 500 μL, respectively) and n-octanol-saturated PBS pH 7.4 buffer (500, 500, 1000 μL, respectively) was added. Each solvent ratio was done in duplicates. The Eppendorf tubes were thoroughly shaken to ensure partition and centrifuged (5000 × g, 10 min) to separate the phases. Water phase (carefully sampled using needle and syringe) was transferred to HPLC vials directly, whereas n-octanol phases were diluted with MeCN (10–50×) prior to analysis. Additional dilutions were carried out, if needed.

Several values for one entry are separate records, joined by “and”; a condition that tells them apart may be missing. Equal entries are not always repeated. Where two headings read alike, the source gives them in different places.

Here are results for one molecule from article PMC12491715 (Acta Pharmaceutica Sinica. B, 2025).

On to `CCN(CC)C(=O)n1cnc(C2(CC)Cc3ccccc3C2)c1` [Compound 8, N,N-Diethyl-4-(2-ethylindan-2-yl)-1H-imidazole-1-carboxamide], for which, on AChE (1 or 5 mg/kg p.o. once a day for 4 weeks), the “serum AChE activities at the end of treatment” value is “unchanged”. Besides, the remaining activity at 1 mg/kg at AChE (mouse, po, serum, 1 mg/kg p.o. once a day, individual animals, after vs before treatment, read-out: AChE residual activity) stood at 91.2%; at AChE (mouse, po, serum, 1 mg/kg p.o. once a day, read-out: AChE residual activity, AVERAGE) it was 101%. Further, the remaining activity at 5 mg/kg on AChE (mouse, po, serum, 5 mg/kg p.o. once a day, read-out: AChE residual activity, AVERAGE) was 91.2%. Besides, the AChE residual activity was 104.0%±9.7% and 107.1%±22.3% on AChE (serum, 1 mg/kg p.o. once a day, individual animals, after vs before treatment, 1 mg/kg); 89.7%±14.6% and 63.0%±13.9% and 121.0%±17.4% on AChE (serum, 5 mg/kg p.o. once a day, individual animals, after vs before treatment, 5 mg/kg). Also, the “AChE activity AFTER treatment” value at AChE (serum, 1 mg/kg p.o. once a day, individual animals, 1 mg/kg) was 0.9541±0.2227 U/mL and 1.0365±0.0653 U/mL and 0.8481±0.0324 U/mL; on AChE (serum, 5 mg/kg p.o. once a day, individual animals, 5 mg/kg), 0.9258±0.0430 U/mL and 0.7420±0.1450 U/mL and 0.9517±0.0657 U/mL. The same molecule returned a pKa in data set [1] of 4.1.

For orientation: pKa means the negative logarithm of the acid dissociation constant. Low values mean a group that gives up its proton readily, high ones a group that holds its proton tightly.
